{"source": "patent US20260258085A1", "about": "“NOVEL DECAPEPTIDE AND USE THEREOF IN ANTIBACTERIAL” (METHYCURE BIOTECH CORP., priority 2023, published 2026)", "key": {"E. coli": {"tested_on": "E. coli", "assay": "Minimum inhibitory concentration test against common Gram-negative bacteria", "type": "cell-based, Escherichia coli", "details": "clinical isolate, 37° C., 16 hours, visual reading", "method": "(§1) The pathogenic bacteria used for testing were all sourced from the intensive care unit of Gulou Hospital, isolated and cultured from clinical samples of patients with severe pneumonia. The strain species were identified by the Microbiology Laboratory of Gulou Hospital. The Gram-negative bacteria here include Escherichia coli, Pseudomonas aeruginosa, Acinetobacter baumannii, Klebsiella pneumoniae, etc.\n(§2) A single colony of the test bacteria was inoculated into 5 ml of medium and cultured overnight to saturation. 10 μL of bacterial culture was aspirated and added to 990 μL of fresh medium, mixed well, to obtain a 100-fold diluted bacterial suspension. Then, 20 μL of the 100-fold diluted bacterial suspension was aspirated and added to 980 μL of fresh medium, mixed well. The bacteria obtained at this point were diluted 5000-fold.\n(§3) The antimicrobial peptide was dissolved in Dimethyl sulfoxide (DMSO) to obtain a stock solution with a concentration of 12.8 mg/mL. Using DMSO, a two-fold serial dilution was performed for 10 consecutive times.\nAdd the 11 gradients of antimicrobial peptide diluted in step 1.1.2 to a 96-well plate, respectively, with the last well containing the same volume of DMSO. Then, add 48 μL of fresh medium to each well. Subsequently, add the 5000-fold diluted bacteria from step 1.1.1 to each well. Mix well. Incubate at 37° C. for 16 hours. […]"}, "Acinetobacter baumannii": {"tested_on": "Acinetobacter baumannii", "assay": "Minimum inhibitory concentration test against common Gram-negative bacteria", "type": "cell-based", "details": "clinical isolate, 37° C., 16 hours, visual reading", "method": "as §1, §2, §3\n(§4) Add the 11 gradients of antimicrobial peptide diluted in step 1.1.2 to a 96-well plate, respectively, with the last well containing the same volume of DMSO. Then, add 48 μL of fresh medium to each well. Subsequently, add the 5000-fold diluted bacteria from step 1.1.1 to each well. Mix well. Incubate at 37° C. for 16 hours. Visually determine the concentration at which bacterial growth begins to be inhibited; this is the minimum inhibitory concentration (MIC)."}, "Klebsiella pneumoniae": {"tested_on": "Klebsiella pneumoniae", "assay": "Minimum inhibitory concentration test against common Gram-negative bacteria", "type": "cell-based", "details": "clinical isolate, 37° C., 16 hours, visual reading", "method": "as §1, §2, §3, §4"}, "Pseudomonas aeruginosa": {"tested_on": "Pseudomonas aeruginosa", "assay": "Minimum inhibitory concentration test against common Gram-negative bacteria", "type": "cell-based", "details": "clinical isolate, 37° C., 16 hours, visual reading", "method": "as §1, §2, §3, §4"}, "[1]": {"tested_on": "A. baumannii containing the MCR-1 plasmid", "type": "cell-based, Acinetobacter baumannii", "details": "for Minimum Inhibitory Concentration, A. baumannii 1: strain 1, MCR-1 plasmid; for Minimum Inhibitory Concentration, A. baumannii 2: strain 2, MCR-1 plasmid", "method": "(§5) The polymyxin-resistant pathogenic bacteria used for testing were all sourced from the hospital intensive care unit, isolated and cultured from clinical samples of patients with severe pneumonia. The strain species were identified by the hospital microbiology laboratory, and the presence of the mcr-1 gene in the strains was confirmed by high-throughput sequencing.\n(§6) The culture procedure fully referenced Example 1.\n(§7) Each bacterial species in the table was tested using 2 strains, denoted as “1” and “2” respectively."}, "[2]": {"tested_on": "P. aeruginosa containing the MCR-1 plasmid", "type": "cell-based, Pseudomonas aeruginosa", "details": "for Minimum Inhibitory Concentration, P. aeruginosa 1: strain 1, MCR-1 plasmid; for Minimum Inhibitory Concentration, P. aeruginosa 2: strain 2, MCR-1 plasmid", "method": "as §5, §6, §7"}, "[3]": {"tested_on": "E. coli containing the MCR-1 plasmid", "type": "cell-based, Escherichia coli", "details": "for Minimum Inhibitory Concentration, E. coli 1: strain 1, MCR-1 plasmid; for Minimum Inhibitory Concentration, E. coli 2: strain 2, MCR-1 plasmid", "method": "as §5, §6, §7"}, "[4]": {"tested_on": "K. pneumoniae containing the MCR-1 plasmid", "type": "cell-based, Klebsiella pneumoniae", "details": "for Minimum Inhibitory Concentration, K. pneumoniae 1: strain 1, MCR-1 plasmid; for Minimum Inhibitory Concentration, K. pneumoniae 2: strain 2, MCR-1 plasmid", "method": "as §5, §6, §7"}, "[5]": {"tested_on": "polymyxin-resistant Acinetobacter baumannii", "assay": "Efficacy in neutropenic mice with thigh infection", "type": "in vivo", "details": "neutropenic CD1 mice, 20 mg/kg subcutaneous at 2, 8, 14, 24 hours post-infection, endpoint 24 hours", "text": "All mice used in this part passed the ethical review of animal research at Nanjing University. To avoid the influence of the mouse's innate immune system on the intrinsic activity of the antimicrobial peptide, we constructed a neutropenic mouse model. This experiment used 6-week-old CD1 female mice (20-25 g). Mice were randomly housed in individually ventilated cages and maintained according to the standards of the Association for Assessment and Accreditation of Laboratory Animal Care International. The room was set to a 12-hour light cycle, temperature of 21° C., and humidity of 30%. […]\nAt 2, 8, 14, and 24 hours post-infection, mice were subcutaneously injected with 100 μL of vehicle (0.9% saline), Polymyxin E (Colistin) (20 mg/kg), or the antimicrobial peptide (20 mg/kg). […] All mice were closely monitored post-infection for signs of illness. Any abnormal clinical symptoms were recorded. […] Thigh muscles were processed aseptically, weighed, homogenized, and plated for CFU counts on MH agar containing 50 μg/mL gentamicin to quantify the bacterial burden. Efficacy was determined by the reduction in bacterial burden in the thighs compared to the […] control group. All graphical data were statistically analyzed using GraphPad Prism software (Prism v.9). Differences in burden between test and control groups were assessed using one-way analysis. […]"}}, "note": "Positions of bridges follow the written chain, without caps; N, C: chain ends. Non-standard residues stand in square brackets, D forms with d. Residues, ends and D or L forms follow the SMILES beside them. *: point of attachment. X1 = CC[C@H](C)CCCCC(=O)*; dDab = NCC[C@@H](N)C(=O)O; Dab = NCC[C@H](N)C(=O)O"}
{"smiles": "CC[C@H](C)CCCCC(=O)N[C@@H](CCN)C(=O)N[C@H](C(=O)N[C@H](CCN)C(=O)N[C@H]1CCNC(=O)[C@H](CC(C)C)NC(=O)[C@H](CCN)NC(=O)[C@H](CCN)NC(=O)[C@H]([C@@H](C)CC)NC(=O)[C@@H](CC(C)C)NC(=O)[C@H](CCN)NC1=O)[C@@H](C)O", "note": "[Antimicrobial Peptide, {6-ME-Octanoic acid}-{Dab}-{Thr}-{D-Dab}-{Dab}-{Dab}-{D-Leu}-{Ile}-{Dab}-{Dab}-{Leu}] (X1-[Dab]T[dDab][Dab][Dab][dL]I[Dab][Dab]L; lactam 4-C)", "values": [{"measurement": "Minimum Inhibitory Concentration (MIC)", "setting": "E. coli", "value": 4, "unit": "µg/mL"}, {"measurement": "Minimum Inhibitory Concentration (MIC)", "setting": "Acinetobacter baumannii", "value": 16, "unit": "µg/mL"}, {"measurement": "Minimum Inhibitory Concentration (MIC)", "setting": "Klebsiella pneumoniae", "value": 8, "unit": "µg/mL"}, {"measurement": "Minimum Inhibitory Concentration (MIC)", "setting": "Pseudomonas aeruginosa", "value": 4, "unit": "µg/mL"}, {"measurement": "Minimum Inhibitory Concentration, A. baumannii 1", "setting": "[1]", "value": 4, "unit": "µg/mL"}, {"measurement": "Minimum Inhibitory Concentration, A. baumannii 2", "setting": "[1]", "value": 2, "unit": "µg/mL"}, {"measurement": "Minimum Inhibitory Concentration, P. aeruginosa 1", "setting": "[2]", "value": 2, "unit": "µg/mL"}, {"measurement": "Minimum Inhibitory Concentration, P. aeruginosa 2", "setting": "[2]", "value": 1, "unit": "µg/mL"}, {"measurement": "Minimum Inhibitory Concentration, E. coli 1", "setting": "[3]", "value": 2, "unit": "µg/mL"}, {"measurement": "Minimum Inhibitory Concentration, E. coli 2", "setting": "[3]", "value": 2, "unit": "µg/mL"}, {"measurement": "Minimum Inhibitory Concentration, K. pneumoniae 1", "setting": "[4]", "value": 1, "unit": "µg/mL"}, {"measurement": "Minimum Inhibitory Concentration, K. pneumoniae 2", "setting": "[4]", "value": 2, "unit": "µg/mL"}, {"measurement": "bacterial burden in thighs (CFU)", "setting": "[5]", "value": "significant reduction in colony-forming units (CFU)"}]}
{"smiles": "CC[C@H](C)CCCCC(=O)N[C@@H](CCN)C(=O)N[C@H](C(=O)N[C@@H](CCN)C(=O)N[C@H]1CCNC(=O)[C@H]([C@@H](C)O)NC(=O)[C@H](CCN)NC(=O)[C@H](CCN)NC(=O)[C@H](CC(C)C)NC(=O)[C@@H](CC(C)C)NC(=O)[C@H](CCN)NC1=O)[C@@H](C)O", "note": "[Colistin, reference compound] (X1-[Dab]T[Dab][Dab][Dab][dL]L[Dab][Dab]T; lactam 4-C)", "values": [{"measurement": "Minimum Inhibitory Concentration, A. baumannii 1", "setting": "[1]", "value": 128, "unit": "µg/mL"}, {"measurement": "Minimum Inhibitory Concentration, A. baumannii 2", "setting": "[1]", "value": 128, "unit": "µg/mL"}, {"measurement": "Minimum Inhibitory Concentration, P. aeruginosa 1", "setting": "[2]", "value": 64, "unit": "µg/mL"}, {"measurement": "Minimum Inhibitory Concentration, P. aeruginosa 2", "setting": "[2]", "value": 128, "unit": "µg/mL"}, {"measurement": "Minimum Inhibitory Concentration, E. coli 1", "setting": "[3]", "value": 128, "unit": "µg/mL"}, {"measurement": "Minimum Inhibitory Concentration, E. coli 2", "setting": "[3]", "value": 256, "unit": "µg/mL"}, {"measurement": "Minimum Inhibitory Concentration, K. pneumoniae 1", "setting": "[4]", "value": 64, "unit": "µg/mL"}, {"measurement": "Minimum Inhibitory Concentration, K. pneumoniae 2", "setting": "[4]", "value": 128, "unit": "µg/mL"}, {"measurement": "bacterial burden in thighs (CFU)", "setting": "[5]", "value": "did not reduce the count of Acinetobacter baumannii"}]}
